Measured values reported in PubChem BioAssay (NCI).
Values joined by “and” are separate entries in the source; they are usually repeats but may differ in a detail not shown here. Equal values may be shown once.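 Following 48 hours of exposure in 96-well plates, responses at five concentrations were used to interpolate endpoints linearly. GI50: concentration for 50% inhibition of growth. TGI: total growth inhibition.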

These molecules were tested on OVCAR-3 ovarian (assay: inhibition of tumour cell growth, NCI panel, 48 h).

Going from `O=C(/C=C/c1ccccc1O)c1ccccc1O` to `CCCCCCNC(=O)c1cc(NCc2cc(O)ccc2O)ccc1O`, the TGI falls from over 100 µM to 13 µM.

Going from `CCn1c(-c2nonc2N)nc2c(C#CC(C)(C)O)nc(OC[C@H](N)c3ccccc3)cc21` to `CC(CCC=O)CCOCc1ccccc1` (centres undefined), the TGI rises from 6.84 µM to over 100 µM.

Going from `O=C1/C(=C/c2ccc(Br)cc2)COc2ccc(O)c(O)c21` to `O=C(Nc1nc2ccc(C(F)(F)F)cc2s1)c1cc(Cl)ccc1O`, the TGI rises from 1.56 µM to 56 µM (36-fold).

Compared with `N#Cc1c(NN)n(C2OC(CO)C(O)C2O)c2ncnc(N)c12` (centres undefined), `N#CC(N)(C(=O)CCC(=O)Nc1cccc(Cl)c1)c1ccc(Cl)cc1` (centres undefined) is higher in TGI: 0.299 µM for the first, over 100 µM for the second.

`S=C(Nc1ccccc1)N(/N=C/C=C/c1ccccc1)c1nnc(-c2ccccc2)c(-c2ccccc2)n1` and `CS(=O)(=O)Nc1ccc2c(c1)oc(=O)c1ccccc12` cannot be ordered by TGI: over 100 µM for the first, over 100 µM for the second.

First: COc1ccc2c(c1)CCCC(Br)C2=O (centres undefined)
Second: COc1cc(C2CC(c3cccc(Br)c3)=NN2C(C)=O)cc(OC)c1OC (centres undefined)
The TGI of the first is 62-fold higher: 37.7 µM for the first, 0.61 µM for the second.

`COc1ccc(-n2cc(-c3cc(OC)c(OC)c(OC)c3)c(C(=O)C(F)(F)F)c2C)cc1` was tested, and the TGI was over 100 µM.

In order of rising GI50:
1. N#Cc1c(NN)n(C2OC(CO)C(O)C2O)c2ncnc(N)c12 (centres undefined)  28 nM
2. COc1cc(C2CC(c3cccc(Br)c3)=NN2C(C)=O)cc(OC)c1OC (centres undefined)  158 nM
3. O=C(Nc1nc2ccc(C(F)(F)F)cc2s1)c1cc(Cl)ccc1O  422 nM
4. O=C1/C(=C/c2ccc(Br)cc2)COc2ccc(O)c(O)c21  493 nM
5. CCCCCCNC(=O)c1cc(NCc2cc(O)ccc2O)ccc1O  2760 nM
6. CCn1c(-c2nonc2N)nc2c(C#CC(C)(C)O)nc(OC[C@H](N)c3ccccc3)cc21  3560 nM
7. COc1ccc(-n2cc(-c3cc(OC)c(OC)c(OC)c3)c(C(=O)C(F)(F)F)c2C)cc1  24900 nM

For `COc1cc(N(CCC#N)CCC#N)ccc1/C(N=Nc1ccc([N+](=O)[O-])cc1)=N/NC(=O)c1cc(Br)ccc1O`, the GI50 was 30.9 µg/mL.

With `COc1cc(N(CCC#N)CCC#N)ccc1/C(N=Nc1ccc([N+](=O)[O-])cc1)=N/NC(=O)c1cc(Br)ccc1O` the TGI was 76.2 µg/mL.

What follows are molecules tested on RPMI-8226 leukemia (assay: inhibition of tumour cell growth, NCI panel, 48 h).

`CC(C)N(C(=O)C12C3C4C5(C#N)C3C1(C#N)C5C42I)C(C)C` (centres undefined) and `CCCCC(C(=O)C(=O)NC1C2CC3CC(C2)CC1C3)C(=O)C(C)C` (centres undefined) cannot be ordered by TGI: over 66.6 µM for the first, over 100 µM for the second.

`C=COCCCOc1ccccc1` and `CC(CCC=O)CCOCc1ccccc1` (centres undefined) cannot be ordered by TGI: over 100 µM for the first, over 100 µM for the second.

Going from `COc1ccc2c3c([nH]c2c1[N+](=O)[O-])C(C)=NCC3` to `COc1ccc2c(c1)CCCC(Br)C2=O` (centres undefined), the TGI falls from over 100 µM to 5.5 µM.

`C=C(c1nc2ccc(Cl)cc2[nH]c1=O)C(O)c1ccc(C(O)C(=O)c2nc3ccc(Cl)cc3[nH]c2=O)cc1` (centres undefined) and `COc1ccc(C(=O)C(c2ccc(OC)cc2)C2(O)C(=O)Nc3ccc([N+](=O)[O-])cc32)cc1` (centres undefined) cannot be ordered by TGI: over 100 µM for the first, over 100 µM for the second.

Going from `CC(C)(C)CC(C)(C)c1cc2c(O)c(c1)Cc1cc(C(C)(C)CC(C)(C)C)cc(c1O)Cc1cc(C(C)(C)CC(C)(C)C)cc(c1O)Cc1cc(C(C)(C)CC(C)(C)C)cc(c1O)C2` to `CCCCCCNC(=O)c1cc(NCc2cc(O)ccc2O)ccc1O`, the TGI falls from over 100 µM to 6.47 µM.

Going from `Cc1nn(-c2ccccc2)c2nc(N3CCOCC3)nnc12` to `CCn1c(-c2nonc2N)nc2c(C#CC(C)(C)O)nc(OC[C@H](N)c3ccccc3)cc21`, the TGI falls from over 100 µM to 14 µM.

`CNC(=O)N(C)N=NCCCl` and `O=C(CCn1[nH]c(=O)c(Cl)c(Cl)c1=O)NO` cannot be ordered by TGI: over 100 µM for the first, over 100 µM for the second.

First: CCOc1ccccc1C=C1c2ccccc2C(=O)c2ccccc21
Second: COC1(OC)CC2C(=O)N(Cc3ccccc3)C1C(S(=O)(=O)c1ccccc1)C2S(=O)(=O)c1ccccc1 (centres undefined)
The TGI of the first is 2-fold lower: 23.2 µM for the first, 45.5 µM for the second.

First: [N-]=[N+]=NC12CC3C4CC5CC3C(C1)C(C5)C4C2
Second: Cn1c2c(c3ccccc31)C1CCCCCCC1C1C(=O)OC(=O)C21 (centres undefined)
The TGI of the first is higher: over 100 µM for the first, 61.2 µM for the second.

`CN(C)c1nc2ccccc2[nH]1` and `CC(C)c1ccccc1NC(=O)CCc1n[nH]c(=S)o1` cannot be ordered by TGI: over 100 µM for the first, over 72.1 µM for the second.

First: COC(=O)C1=C(O)c2cc(OC)c(OC)cc2C(c2ccc(OC)c(OC)c2)C1 (centres undefined)
Second: COc1cc(C2CC(c3cccc(Br)c3)=NN2C(C)=O)cc(OC)c1OC (centres undefined)
The TGI of the first is higher: over 100 µM for the first, 0.67 µM for the second.

First: Cc1cc(CC(O)c2ccc(Cl)c(Cl)c2)nc(=O)[nH]1 (centres undefined)
Second: O=C(Nc1nc2ccc(C(F)(F)F)cc2s1)c1cc(Cl)ccc1O
The TGI of the first is higher: over 100 µM for the first, 2 µM for the second.

First: COC(=O)C(=Cc1cc(OC)ccc1OC)C(=O)OC
Second: COc1ccc(-n2cc(-c3cc(OC)c(OC)c(OC)c3)c(C(=O)C(F)(F)F)c2C)cc1
The TGI of the first is lower: 92.2 µM for the first, over 100 µM for the second.

`CC1=NNC(=O)C2CCC(=O)N12` (centres undefined) and `Cc1ccc(S(=O)(=O)N(CC(=O)O)c2ccccc2)cc1` cannot be ordered by TGI: over 100 µM for the first, over 100 µM for the second.

Going from `O=C(/C=C/c1ccccc1O)c1ccccc1O` to `O=C1/C(=C/c2ccc(Br)cc2)COc2ccc(O)c(O)c21`, the TGI falls from over 100 µM to 1.02 µM.

Compared with `N#Cc1c(NN)n(C2OC(CO)C(O)C2O)c2ncnc(N)c12` (centres undefined), `N#CC(N)(C(=O)CCC(=O)Nc1cccc(Cl)c1)c1ccc(Cl)cc1` (centres undefined) is higher in TGI: 0.614 µM for the first, over 100 µM for the second.

`S=C(Nc1ccccc1)N(/N=C/C=C/c1ccccc1)c1nnc(-c2ccccc2)c(-c2ccccc2)n1` and `CS(=O)(=O)Nc1ccc2c(c1)oc(=O)c1ccccc12` cannot be ordered by TGI: over 100 µM for the first, over 100 µM for the second.

In the case of `O=C1c2cccc(NCCCNCCO)c2C(=O)c2cccc(NCCCNCCO)c21`, the TGI is reported as 5.58 µM and 6.85 µM.

In order of rising GI50:
1. N#Cc1c(NN)n(C2OC(CO)C(O)C2O)c2ncnc(N)c12 (centres undefined)  105 nM
2. COc1cc(C2CC(c3cccc(Br)c3)=NN2C(C)=O)cc(OC)c1OC (centres undefined)  181 nM
3. O=C1/C(=C/c2ccc(Br)cc2)COc2ccc(O)c(O)c21  221 nM
4. O=C(Nc1nc2ccc(C(F)(F)F)cc2s1)c1cc(Cl)ccc1O  276 nM
5. CCCCCCNC(=O)c1cc(NCc2cc(O)ccc2O)ccc1O  371 nM
6. COc1ccc(-n2cc(-c3cc(OC)c(OC)c(OC)c3)c(C(=O)C(F)(F)F)c2C)cc1  4530 nM
7. CCn1c(-c2nonc2N)nc2c(C#CC(C)(C)O)nc(OC[C@H](N)c3ccccc3)cc21  6040 nM

`COc1cc(N(CCC#N)CCC#N)ccc1/C(N=Nc1ccc([N+](=O)[O-])cc1)=N/NC(=O)c1cc(Br)ccc1O` gave a GI50 of 38.2 µg/mL.

In the case of `COc1cc(N(CCC#N)CCC#N)ccc1/C(N=Nc1ccc([N+](=O)[O-])cc1)=N/NC(=O)c1cc(Br)ccc1O`, the TGI is reported as over 150 µg/mL.

Each molecule was assayed on SR leukemia (assay: inhibition of tumour cell growth, NCI panel, 48 h).

Going from `CC(C)N(C(=O)C12C3C4C5(C#N)C3C1(C#N)C5C42I)C(C)C` (centres undefined) to `CCCCC(C(=O)C(=O)NC1C2CC3CC(C2)CC1C3)C(=O)C(C)C` (centres undefined), the TGI rises from 38.2 µM to over 100 µM.

`C=COCCCOc1ccccc1` and `CC(CCC=O)CCOCc1ccccc1` (centres undefined) cannot be ordered by TGI: over 100 µM for the first, over 80.7 µM for the second.

First: COc1ccc2c3c([nH]c2c1[N+](=O)[O-])C(C)=NCC3
Second: Cc1cc([N+](=O)[O-])ccc1Nc1cccc(Cl)c1C
The TGI of the first is higher: over 100 µM for the first, 40.4 µM for the second.

`C=C(c1nc2ccc(Cl)cc2[nH]c1=O)C(O)c1ccc(C(O)C(=O)c2nc3ccc(Cl)cc3[nH]c2=O)cc1` (centres undefined) and `COc1ccc(C(=O)C(c2ccc(OC)cc2)C2(O)C(=O)Nc3ccc([N+](=O)[O-])cc32)cc1` (centres undefined) cannot be ordered by TGI: over 100 µM for the first, over 100 µM for the second.

`CNC(=O)N(C)N=NCCCl` and `CC(C)c1ccccc1NC(=O)CCc1n[nH]c(=S)o1` cannot be ordered by TGI: over 100 µM for the first, over 100 µM for the second.

First: [N-]=[N+]=NC12CC3C4CC5CC3C(C1)C(C5)C4C2
Second: Cn1c2c(c3ccccc31)C1CCCCCCC1C1C(=O)OC(=O)C21 (centres undefined)
The TGI of the first is higher: over 100 µM for the first, 87.4 µM for the second.

First: NNC(=S)N/N=C(\CC1OC(=O)c2ccccc21)c1ccccc1O (centres undefined)
Second: CS(=O)(=O)Nc1ccc2c(c1)oc(=O)c1ccccc12
The TGI of the first is lower: 46.4 µM for the first, over 100 µM for the second.

`COC(=O)C1=C(O)c2cc(OC)c(OC)cc2C(c2ccc(OC)c(OC)c2)C1` (centres undefined) and `COc1cc(C2CC(c3cccc(Br)c3)=NN2C(C)=O)cc(OC)c1OC` (centres undefined) cannot be ordered by TGI: over 100 µM for the first, over 100 µM for the second.

Going from `COC1(OC)CC2C(=O)N(Cc3ccccc3)C1C(S(=O)(=O)c1ccccc1)C2S(=O)(=O)c1ccccc1` (centres undefined) to `COc1ccc(-n2cc(-c3cc(OC)c(OC)c(OC)c3)c(C(=O)C(F)(F)F)c2C)cc1`, the TGI rises from 85.4 µM to over 100 µM.

Compared with `Cc1cc(CC(O)c2ccc(Cl)c(Cl)c2)nc(=O)[nH]1` (centres undefined), `O=C(Nc1nc2ccc(C(F)(F)F)cc2s1)c1cc(Cl)ccc1O` is lower in TGI: over 100 µM for the first, 20.1 µM for the second.

Going from `CC1=NNC(=O)C2CCC(=O)N12` (centres undefined) to `COc1ccc2c(c1)CCCC(Br)C2=O` (centres undefined), the TGI falls from over 100 µM to 24.6 µM.

Going from `CCn1c(-c2nonc2N)nc2c(C#CC(C)(C)O)nc(OC[C@H](N)c3ccccc3)cc21` to `N#Cc1c(NN)n(C2OC(CO)C(O)C2O)c2ncnc(N)c12` (centres undefined), the TGI falls from 16.3 µM to 0.0815 µM (200-fold).

`O=C1/C(=C/c2ccc(Br)cc2)COc2ccc(O)c(O)c21` and `CCCCCCNC(=O)c1cc(NCc2cc(O)ccc2O)ccc1O` cannot be ordered by TGI: over 100 µM for the first, over 100 µM for the second.

Work on `N#CC(N)(C(=O)CCC(=O)Nc1cccc(Cl)c1)c1ccc(Cl)cc1` (centres undefined) yielded a TGI of over 100 µM.

With `O=C1c2cccc(NCCCNCCO)c2C(=O)c2cccc(NCCCNCCO)c21` the GI50 was 2560 nM and 532 nM.

With `O=C1c2cccc(NCCCNCCO)c2C(=O)c2cccc(NCCCNCCO)c21` the TGI was 6.25 µM and 7.33 µM.

In order of falling GI50:
1. CCn1c(-c2nonc2N)nc2c(C#CC(C)(C)O)nc(OC[C@H](N)c3ccccc3)cc21  6240 nM
2. COc1ccc(-n2cc(-c3cc(OC)c(OC)c(OC)c3)c(C(=O)C(F)(F)F)c2C)cc1  4540 nM
3. CCCCCCNC(=O)c1cc(NCc2cc(O)ccc2O)ccc1O  2880 nM
4. O=C(Nc1nc2ccc(C(F)(F)F)cc2s1)c1cc(Cl)ccc1O  1240 nM
5. O=C1/C(=C/c2ccc(Br)cc2)COc2ccc(O)c(O)c21  452 nM
6. COc1cc(C2CC(c3cccc(Br)c3)=NN2C(C)=O)cc(OC)c1OC (centres undefined)  40.2 nM
7. N#Cc1c(NN)n(C2OC(CO)C(O)C2O)c2ncnc(N)c12 (centres undefined)  27.2 nM

For `COc1cc(N(CCC#N)CCC#N)ccc1/C(N=Nc1ccc([N+](=O)[O-])cc1)=N/NC(=O)c1cc(Br)ccc1O`, the GI50 was 44.8 µg/mL.

Work on `COc1cc(N(CCC#N)CCC#N)ccc1/C(N=Nc1ccc([N+](=O)[O-])cc1)=N/NC(=O)c1cc(Br)ccc1O` yielded a TGI of over 150 µg/mL.
